# Data: patent publication US8168861B2, “Compositions and methods for increasing cellulose production” (The Regents of the University of California, priority 2008, dated 2012)
# What was measured:
# [1] = tested on: CesA and RLK gene expression; conditions: isoxaben treatment, cited from earlier work
# [2] = tested on: Arabidopsis thaliana hypocotyl; test: Dark-grown hypocotyl growth of SRF mutants on isoxaben media; type: in vivo
# Protocol: Data is taken from three independent experiments. Data is from hypocotyl lengths relative to wild type plants grown on the same plate and relative to mutants grown on DMSO control media. Student's t-test: *=p<0.05.
# Arabidopsis thaliana ecotype Columbia-0 (Col-0) was used. Before plating seeds were surface sterilized. First, the seeds were washed in 95% ethanol for 10 minutes, which was removed then the sterilization solution was added (20% bleach, 0.05% Tween-20 (Sigma) and double distilled water) and shaken for 10 minutes. The sterilization solution was removed and the seeds were washed three times with sterile distilled water. The seeds were cold treated for 4 days at 4° C. after plating them on the plates. Two different growth media were prepared for these experiments. For the control conditions: one-half strength Murashige and Skoog (MS) salts (Sigma), 0.5% sucrose (Sigma), 0.8% phyto agar (Research Products International Corp.), 1×B5 (1,000× in double distilled water: 10% myo-inositol, 0.1% nicotinic acid and 0.1% pyroxidine HCl) and 1× Thiamin (2,000× in double distilled water: 0.2% thiamin HCl). The other growth media contained either no sucrose but all other components remained the same. Plants used in Fourier Transform Infrared (FT-IR) Microspectroscopy and hypocotyl length, were only grown on sucrose-deprived media in the dark for four days after cold treatment. For selection of mutants from the Arabidopsis Biological Resource Center (ARBC), they were first plated onto MS media containing 50 μg/ml Kanamycin to select for insertions containing the NTPII (Kanamycin resistance) gene. In the case this resistance is lost the seeds were also sown onto regular MS media containing no antibiotic and then transferred to soil after one week. Plants were then grown on soil for 2-3 weeks after transfer from the plates and they were examined for status of the T-DNA insertion. Only homozygous T3 and T4 knockout mutants were used for the following experiments.
# Isoxaben is a specific inhibitor of cellulose synthesis by affecting the function of the CesA proteins involved in primary cell wall synthesis, such as CesA3 and CesA6 (Scheible et al., 2001; Persson et al., 2007). Because SRF7 in particular is co-expressed with these same CesA genes the effects of isoxaben on SRF mutants was examined. […] The results which are in agreement with the dark-grown hypocotyl phenotypes of the srf mutants supports the hypothesis that SRF6 and SRF7 regulate CesA-mediated synthesis of the primary cell wall
smiles,measurement,setting,value
CCC(C)(CC)c1cc(NC(=O)c2c(OC)cccc2OC)on1 [isoxaben],SRF6 gene expression,[1]; FIG. 10B,reduced gene expression
same,primary cell wall CesA gene expression,[1]; FIG. 10D,reduces primary cell wall CesA gene expression
same,secondary cell wall CesA gene expression,[1]; FIG. 10D,not the secondary cell wall CesAs
same,response of hypocotyl length to isoxaben vs wild type,"[2]; dominant negative of SRF7, 0.5 and 1 nM isoxaben",increased resistance
same,response of hypocotyl length to isoxaben vs wild type,"[2]; dominant negative of SRF7, 5 and 10 nM isoxaben",increase sensitivity
same,response of hypocotyl length to isoxaben vs wild type,[2]; overexpression of SRF7 in srf7-1 mutant,wild type resistance
same,response of hypocotyl length to isoxaben vs wild type,"[2]; srf6-1 and srf7-1 mutants (extracellular domain insertion), up to 10 μM, p<0.05",significantly more resistant
same,response of hypocotyl length to isoxaben vs wild type,[2]; srf6-2 and srf7-3 mutants,increased sensitivity
same,response of hypocotyl length to isoxaben vs wild type,[2]; srf7-2 mutant,no difference in isoxaben response
